Earlier results in paper PMC4515243, “Phase 1 pharmacokinetic study of the oral pan-AKT inhibitor MK-2206 in Japanese patients with advanced solid tumors” (Cancer Chemotherapy and Pharmacology, 2015).
Read-outs that look alike come from different tables or passages of the source.

Experiments:
[1] = tested on: AKT1; parameters: method as in ref 3 = [3]; 3. Yan L (2009) MK-2206: a potent oral allosteric AKT inhibitor [abstract #DDT01-1]. In: Proceedings of the 100th annual meeting of the American association for cancer research, Denver, CO, 18–22 Apr; conditions: purified recombinant AKT1, in vitro; cited from earlier work
[2] = tested on: in vivo preclinical models; parameters: method as in PMID 20571069; conditions: single agent; cited from earlier work
[3] = tested on: AKT3; parameters: method as in ref 4 = [4]; 4. Lu W, Defeo-Jones D, Davis L et al (2009) In vitro and in vivo antitumor activities of MK-2206, a new allosteric Akt inhibitor [abstract #3714]. In: Proceedings of the 100th annual meeting of the A; conditions: several cancer cell lines; cited from earlier work
[4] = tested on: non-Japanese patients with advanced solid tumors; conditions: cited from earlier work
[5] = tested on: AKT3; parameters: method as in ref 3 = [3]; 3. Yan L (2009) MK-2206: a potent oral allosteric AKT inhibitor [abstract #DDT01-1]. In: Proceedings of the 100th annual meeting of the American association for cancer research, Denver, CO, 18–22 Apr; conditions: purified recombinant AKT3, in vitro; cited from earlier work
[6] = tested on: AKT2; parameters: method as in ref 4 = [4]; 4. Lu W, Defeo-Jones D, Davis L et al (2009) In vitro and in vivo antitumor activities of MK-2206, a new allosteric Akt inhibitor [abstract #3714]. In: Proceedings of the 100th annual meeting of the A; conditions: several cancer cell lines; cited from earlier work
[7] = molecular target: AKT1 kinase activity; parameters: method as in ref 4 = [4]; 4. Lu W, Defeo-Jones D, Davis L et al (2009) In vitro and in vivo antitumor activities of MK-2206, a new allosteric Akt inhibitor [abstract #3714]. In: Proceedings of the 100th annual meeting of the A; conditions: several cancer cell lines; cited from earlier work
[8] = tested on: AKT2; parameters: method as in ref 3 = [3]; 3. Yan L (2009) MK-2206: a potent oral allosteric AKT inhibitor [abstract #DDT01-1]. In: Proceedings of the 100th annual meeting of the American association for cancer research, Denver, CO, 18–22 Apr; conditions: purified recombinant AKT2, in vitro; cited from earlier work

## NC1(c2ccc(-c3nc4ccn5c(=O)[nH]nc5c4cc3-c3ccccc3)cc2)CCC1 [MK-2206]
[1]
  IC50: […]
[2]
  anti-tumor activity: showed anti-tumor activity
[3]
  potency on AKT3 activity relative to AKT1: two to sixfold less potently
[4]; 60 mg QOD, grade 3 skin rash
  patients who experienced a DLT: One of 20
[4]; 60 mg QOD
  patients who experienced a DLT, percent: 5.0%
[4]; 200 mg QW, grade 3 skin rash (three), grade 3 dermatitis acneiform (one)
  patients who experienced DLTs: Four of 17
[4]; 200 mg QW
  patients who experienced DLTs, percent: 23.5%
[4]; QOD dosing schedule
  maximum tolerated dose (MTD): 60 mg/day
[4]; QW dosing schedule
  maximum tolerated dose (MTD): 200 mg/day
[5]
  IC50: 65 nM
[6]
  potency on AKT2 activity relative to AKT1: two to sixfold less potently
[7]
  IC50: ~20 nM
[8]
  IC50: 12 nM
